Data as given in patent US20170056351A1, “COMPOSITION FOR INDUCING TUMOR IMMUNITY” (UNIVERSITY OF OCCUPATIONAL AND ENVIRONMENTAL HEALTH, JAPAN, priority 2014, published 2017).

Legend:
9L gliosarcoma cells = assay: In vivo radiosensitizing effect of ALA with multiple doses of ionizing radiation, tumor growth in rat subcutaneous tumor model
Experimental: As experimental animals, inbred male Fischer 344 rats (8 week old) (SLC, Inc. (Hamamatsu, Japan)) were used and were inoculated with 9L gliosarcoma cells. The inoculation was carried out in accordance with the procedures described in the following publications: Yamamoto J, Hirano T, Li S, Koide M, Kohno E, Inenaga C, et al.: Selective accumulation and strong photodynamic effects of a new photosensitizer, ATX-S10.Na (II), in experimental malignant glioma. Int J Oncol 27: 1207-13, 2005; Yamamoto J, Yamamoto S, Hirano T, Li S, Koide M, Kohno E, et al.: Monitoring of singlet oxygen is useful for predicting the photodynamic effects in the treatment for experimental glioma. Clin Cancer Res 12: 7132-9, 2006. In short, 9L gliosarcoma cells (1×10^6 cells) were transplanted into the skin on the dorsal side of each Fischer 344 rat, so as to produce a rat subcutaneous tumor model.
As described above, 9L gliosarcoma cells were inoculated into inbred Fischer 344 rats. […] Moreover, according to other previous studies, it had been reported that the dose of ALA by a single intravenous injection is 100 to 500 mg/kg body weight in the photodynamic therapy (PDT) using rodents (Yamamoto J, Yamamoto S, Hirano T, Li S, Koide M, Kohno E, et al.: Monitoring of singlet oxygen is useful for predicting the photodynamic effects in the treatment for experimental glioma. Clin Cancer Res 12:7132-9, 2006; Abels C, Heil P, Dellian M, Kuhnle G E, Baumgartner R, Goetz A E: In vivo kinetics and spectra of 5-aminolaevulinic acid-induced fluorescence in an amelanotic melanoma of the hamster. Br J Cancer 70: 826-33, 1994; Abels C, Fritsch C, Bolsen K, Szeimies R M, Ruzicka T, Goerz G, et al.: Photodynamic therapy with 5-aminolaevulinic acid-induced porphyrins of an amelanotic melanoma in vivo. J Photochem Photobiol B 40: 76-83, 1997; Bozzini G, Colin P, Betrouni N, Maurage C A, Leroy X, Simonin S, et al.: Efficiency of 5-ALA mediated photodynamic therapy on hypoxic prostate cancer: a preclinical study on the Dunning R3327-AT2 rat tumor model. Photodiagnosis Photodyn Ther 10: 296-303, 2013.). Accordingly, in the present study, the present inventors have determined the maximum dose of ionizing radiation to be 10 Gy, and the maximum dose of ALA to be 500 mg/kg body weight. […] Multiple intravenous injections into the caudal vein of rats had been technically difficult, but according to the experience of the present inventors, at maximum 5 times of injections had been possible. Accordingly, the present inventors have determined an optimal ionizing irradiation schedule, in which ionizing irradiation at a dose of 2 Gy/day and ALA multiple-dose administration at a dose of 100 mg/kg body weight/day were carried out for 5 consecutive days. After the subcutaneous tumor had grown to a size of 6 to 8 mm in diameter, the rats were randomly divided into four groups, and were then treated as follows:
control group (without treatments) (n=5); ALA multiple-dose administration group (n=5); ionizing radiation multiple-dose application group (RT) (n=7); and ALA multiple-dose administration+ionizing radiation multiple-dose application group. (5-ALA+RT) (n=7).
In a group to which only ALA was administered, only ALA (100 mg/kg) was administered to rats via caudal vein for 5 consecutive days. In a multiple-dose application group involving only ionizing radiation, rats were anesthetized and were then irradiated with an ionizing radiation of 2 Gy/day for 5 consecutive days (a total of 10 Gy). In an ALA multiple-dose administration+ionizing radiation multiple-dose application group, for 5 consecutive days, rats were intravenously administered with ALA (100 mg/kg), then 3 hours later, the rats were anesthetized, and an ionizing radiation of 2 Gy/day was applied to the subcutaneous tumor thereof in a dark place (a total of 10 Gy). Ionizing radiation was applied at a rate of 0.65 Gy/min, using an X-ray irradiation apparatus (MBR-1520R; HITACHI Engineering & Service Co., Ltd., Japan). […]

[1] = living body; cited from earlier work
9L cells = assay: Intracellular level of 5-ALA-induced PpIX by flow cytometric analysis, 9L; type: cell-based, rat; details: average±SE
Experimental: (§1) Two types of rat glioma cell lines (9L and C6) and human glioma cell lines (U251 and T98G) were used. Before use, 9L and T98G were cultured in RPMI-1640 at 37° C. for several days, whereas C6 and U251 were cultured in 10% FBS-added Dulbecco's modified Eagle's medium (DMEM) at 37° C. for several days. These cell lines were maintained at 37° C. in 5% CO2 in a humidified incubator. The cells were subcultured at an exponential growth phase thereof, using 0.05% trypsin solution containing 0.5 mM ethylenediamine tetraacetate. 70% confluent cells were used in the subsequent experiments. 5-ALA was dissolved in RPMI-1640 (9L and T98G), or in 10% FBS-added DMEM (C6 and U251), to a final concentration of 1 mM.
(§2) The cells were seeded on a 100-mm culture dish, and were then cultured. The cells were incubated in a complete medium containing 1 mM 5-ALA for 4 hours, and were then washed with PBS. The resulting cells were peeled from the bottom layer by a trypsin treatment, and were then recovered by centrifugation (400×g, 3 min, and 4° C.). Immediately after the recovery, the cells were re-suspended in cold PBS/FBS, and were then analyzed using a flow cytometer (EC800; Sony Biotechnology, Tokyo, Japan). Generally, 30,000 cells contained in each sample were evaluated. Using 488-nm argon ion laser, fluorescence was excited from intracellular PpIX, and the fluorescence was then detected using a 640/30 nm band-pass filter. In order to prevent photoactivation of 5-ALA-induced PpIX, all procedures were carried out in a dark room. The flow cytometric data were analyzed using FlowJo (Tree Star Inc., Ashland, Oreg., USA). The mean fluorescence intensity (MFI) of PpIX fluorescence in the 5-ALA-treated cells, with respect to that of 5-ALA-not-treated cells, was calculated for each cell line.

U251 cells = assay: Intracellular level of 5-ALA-induced PpIX by flow cytometric analysis, U251; type: cell-based, human; details: average±SE
Experimental: as §1, §2

[2] = 1 mM 5-ALA for 4 hours, relative to 5-ALA-not-treated cells
[3] = 4 hours after ionizing irradiation
[4] = 12 hours after ionizing irradiation
[5] = 24 hours after ionizing irradiation

Q: With `NCC(=O)CCC(=O)O` [ALA, 5-aminolevulinic acid] as the compound, how does the “mean tumor growth inhibitory rate” value (9L gliosarcoma cells; 16th day after treatment, ALA multiple-dose + ionizing radiation multiple-dose group compared with ionizing radiation multiple-dose group) read?
A: The value was 42.5%.

Q: And the “mean tumor volume, Day 0” value (9L gliosarcoma cells; ALA alone 100 mg/kg i.v. for 5 consecutive days, Day 0, mean ± SE, n = 5)?
A: The value was 143.9 ± 17.4 mm^3.

Q: What about the “mean tumor volume, Day 8” value (9L gliosarcoma cells; ALA alone 100 mg/kg i.v. for 5 consecutive days, Day 8, mean ± SE, n = 5) of the same compound?
A: The value was 865.4 ± 107.2 mm^3.

Q: What about the “mean tumor volume, Day 10” value (9L gliosarcoma cells; ALA alone 100 mg/kg i.v. for 5 consecutive days, Day 10, mean ± SE, n = 5) of the same compound?
A: The value was 1403 ± 224.3 mm^3.

Q: And the “mean tumor volume, Day 12” value (9L gliosarcoma cells; ALA alone 100 mg/kg i.v. for 5 consecutive days, Day 12, mean ± SE, n = 5)?
A: The value was 1842.6 ± 218.8 mm^3.

Q: What about the “mean tumor volume, Day 14” value (9L gliosarcoma cells; ALA alone 100 mg/kg i.v. for 5 consecutive days, Day 14, mean ± SE, n = 5) of the same compound?
A: Its value is 2276.3 ± 192.8 mm^3.

Q: And the “mean tumor volume, Day 16” value (9L gliosarcoma cells; ALA alone 100 mg/kg i.v. for 5 consecutive days, Day 16, mean ± SE, n = 5)?
A: Its value is 2869.4 ± 267.9 mm^3.

Q: What about the “growth of the tumor in comparison to the control group” value (9L gliosarcoma cells; ALA multiple-dose administration alone, 16th day, p=0.0448) of the same compound?
A: Its value is “inhibited”.

Q: And the “time until ALA is metabolized and discharged from the body” value [1]?
A: The value was ≤ 48 h.

Q: And the “relative MFI of PpIX fluorescence” value (9L cells; [2])?
A: The value was 21.5±0.12.

Q: What about the “relative MFI of PpIX fluorescence after ionizing irradiation” value (from here on “relative MFI … after ionizing irradiation”) (9L cells; [3]) of the same compound?
A: Its value is 15.2±0.15.

Q: What about the “relative MFI … after ionizing irradiation” value (9L cells; [4]) of the same compound?
A: The value was 15.9±0.73.

Q: And the “relative MFI … after ionizing irradiation” value (9L cells; [5])?
A: Its value is 13.4±2.43.

Q: And the “relative MFI of PpIX fluorescence” value (U251 cells; [2])?
A: The value was 37.6±0.12.

Q: What about the “relative MFI … after ionizing irradiation” value (U251 cells; [3]) of the same compound?
A: The value was 41.6±0.20.

Q: And the “relative MFI … after ionizing irradiation” value (U251 cells; [4])?
A: Its value is 44.2±3.67.

Q: And the “relative MFI … after ionizing irradiation” value (U251 cells; [5])?
A: The value was 51.1±3.76.
